Columns and labels:
Assay type in all cases: cell-based
A549 = assay: MTT cytotoxicity assay, A549; conditions: Homo sapiens, 96 h compound exposure, read-out: absolute IC50, A549
Excerpt: Lovo: cell line derived from a metastatic site in a patient with colon cancer MCF7: human oestrogen sensitive mammary epithelial cell line PC3: human prostate cancer cell line A549: cancerous lung tissue derived cells L1210: lymphoblast cell line derived from a mouse with lymphocytic leukaemia FM3A: mammary carcinoma murine cells CEM: human T-lymphoblasts, derived from the blood of a patient with acute lymphoblastic leukaemia HeLa: epithelial cells from a patient with cervical adenocarcinoma
Anti-tumour evaluation in MCF7, LoVo, A549 and PC3 cell lines was performed by MTT assay. Compounds were prepared as 0.1-100 mM stock solutions dissolved in DMSO and stored at −20° C. Cells were seeded into 96-well microtitre plates at a density of 5×10^3 cells per well and allowed 24 hours to adhere. Decimal compound dilutions were prepared in medium immediately prior to each assay (final concentration 0.1-100 μM). Experimental medium was DMEM+10% FCS (PC3 and Lovo) or RPMI+10% heat inactivated FCS (A549 and MCF7). Following 96 h compound exposure at 37° C., 5% CO2, MTT reagent (Sigma Aldrich) was added to each well (final concentration 0.5 mg/ml). Incubation at 37° C. for 4 h allowed reduction of MTT by viable cells to an insoluble formazan product. MTT was removed and formazan solubilised by addition of 10% Triton X-100 in PBS. Absorbance was read on a Tecan Sunrise spectrophotometer at 540 nm as a measure of cell viability; thus inhibition relative to control was determined (IC50).

[1] = tested on: human cervix carcinoma HeLa cells; assay: Cell proliferation (Coulter count) assay, HeLa; conditions: 120 h, cell count on day 5, read-out: absolute IC50, HeLa
How it was run: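 Cells grown in DMEM with 10% FBS. HeLa seeded at 10 000 cells/well, compound added after 24 h, counted day 5; L1210 and CEM seeded at 60 000 cells/well with compound, counted after 48 h and 72 h respectively. IC50 is concentration halving proliferation by Coulter count.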

[2] = tested on: KG1a leukaemic stem cell compartment (Lin−/CD34+/CD38−/CD123+); assay: Leukaemic stem cell compartment in KG1a; conditions: for KG-1a (CD34+/CD38−/CD123+) % compartment: LSC as percentage of viable cells left, 72 hrs; for targeting of leukaemic/cancer stem cells in words: KG1a, compared to 8-chloroadenosine (FIG. 2, FIG. 8); for Change relative to control (%): % LSC compartment versus the series' control
Experimental: (§1) A further comparative analysis of the toxicity of compounds in the KG1a cell line over an extended dose range was carried out, and the relative effect assessed of the compounds on the leukaemic stem cell compartment within the KG1a cell line, across the entire dose range. Thus, experimental tests were performed on certain compounds of the present invention to assess their ability to target cancer stem cells in a leukaemic cell line. The acute myeloid leukaemia (AML) cell line, KG1a, was employed to assess the relative effect of compounds on the stem cell compartment. The KG1a cell line was selected because it manifests a minor stem cell-like compartment with a distinct immunophenotype (Lin^−/CD34^+/CD38^−/CD123^+).
(§2) Cells of the KG1a cell line were maintained in RPMI medium (Invitrogen, Paisley, UK) supplemented with 100 units/ml penicillin, 100 μg/ml streptomycin and 20% foetal calf serum. Cells were subsequently aliquoted (10^5 cells/100 μl) into 96-well plates and were incubated at 37° C. in a humidified 5% carbon dioxide atmosphere for 72 hrs in the presence of nucleoside analogues and their respective nucleotide analogues (known as ProTides) at concentrations that were experimentally determined for each series of compounds. In addition, control cultures were carried out to which no drug was added. Cells were subsequently harvested by centrifugation and were analyzed by flow cytometry using the Annexin V assay.
KG1a cells were cultured for 72 hrs in the presence of a wide range of concentrations of each compound assayed. Cells were then harvested and labelled with a cocktail of anti-lineage antibodies (PE-cy7), anti-CD34 (FITC), anti-CD38 (PE) and anti-CD123 (PERCP cy5). The sub-population expressing a leukaemic stem cell (LSC) phenotype were subsequently identified and were expressed as a percentage of all viable cells left in the culture. The percentages of stem cells remaining were then plotted on a dose-response graph and the effects of the compounds were compared with 8-chloroadenosine.
(§3) The data obtained in these experiments were evaluated using one way ANOVA. All data was confirmed as Gaussian or a Gaussian approximation using the omnibus K2 test. LD50 values were calculated from the non-linear regression and line of best-fit analysis of the sigmoidal dose-response curves. All statistical analyses were performed using Graphpad Prism 6.0 software (Graphpad Software Inc., San Diego, Calif.).

KG1a cell line = assay: Annexin V/propidium iodide cytotoxicity, KG1a unsorted; conditions: for LD50: Homo sapiens, KG-1a, Annexin V/propidium iodide, 72 hrs; for cytotoxic potency compared in words: KG1a, versus 8-chloroadenosine or other isomers (FIG. 1, FIG. 7)
Experimental: as §1, §2
Cultured cells were harvested by centrifugation and then resuspended in 195 μl of calcium-rich buffer. Subsequently, 5 μl of Annexin V (Caltag Medsystems, Botolph Claydon, UK) was added to the cell suspension and cells were incubated in the dark for 10 mins prior to washing. Cells were finally resuspended in 190 μl of calcium-rich buffer together with 10 μl of propidium iodide. Apoptosis was assessed by dual-colour immunofluorescent flow cytometry as described previously. Subsequently LD50 values (the dose required to kill 50% of the cells in a culture) were calculated for each nucleoside analogue and ProTide.
as §3

| Compound | IC50 (A549) [µM] | IC50 [1] [µM] | KG-1a (CD34+/CD38−/CD123+) % compartment [2] [%] | LD50 (KG1a cell line) [µM] | cytotoxic potency compared in words (KG1a cell line) | targeting of leukaemic/cancer stem cells in words [2] | Change relative to control (%) [2] |
| --- | --- | --- | --- | --- | --- | --- | --- |
| CC(C)C[C@H](NP(=O)(OC[C@H]1O[C@@H](n2c(Cl)nc3c(N)ncnc32)C(O)C1O)Oc1ccccc1)C(=O)OCc1ccccc1 (stereo partly drawn) [V, 5′-([(Benzyloxy-L-leucin-N-yl)-phenyl]-phosphatyl) 8-chloroadenosine] | 0.1 to 5 | 0.1 to 5 |  |  |  |  |  |
| C[C@H](NP(=O)(OC[C@H]1O[C@@H](n2c(Cl)nc3c(N)ncnc32)[C@H](O)[C@@H]1O)Oc1ccccc1)C(=O)OCc1ccccc1 (mixture of isomers) [C, (2S)-Benzyl 2-(((((2R,3S,4R,5R)-5-(6-amino-8-chloro-9H-purin-9-yl)-3,4-dihydroxy-tetrahydrofuran-2-yl)methoxy)(phenoxy)phosphoryl)amino)propanoate] | 15 to 100 | 5 to 15 | 3.3 | 1.6 |  |  |  |
| CCCCCOC(=O)[C@H](C)NP(=O)(OC[C@H]1O[C@@H](n2c(Cl)nc3c(N)ncnc32)C(O)C1O)Oc1cccc2ccccc12 (stereo partly drawn) [Compound E, (2S)-Pentyl 2-(((((2R,3S,4R,5R)-5-(6-amino-8-chloro-9H-purin-9-yl)-3,4-dihydroxy-tetrahydrofuran-2-yl)methoxnaphthalene-1-yloxy)phosphoryl)amino)propanoate] |  | 0.1 to 5 | 3.5 | 20 | less potent than 8-chloroadenosine |  |  |
| Nc1ncnc2c1nc(Cl)n2[C@@H]1O[C@H](COP(=O)(NCC(=O)OC2CCCCC2)Oc2ccccc2)[C@@H](O)[C@H]1O (mixture of isomers) [Compound A, Cyclohexyl 2-(((((2R,3S,4R,5R)-5-(6-amino-8-chloro-9H-purin-9-yl)-3,4-dihydroxy-tetrahydrofuran-2-yl)methoxy)(phenoxy)phosphoryl)amino)acetate] | 15 to 100 | 15 to 100 |  |  |  |  |  |
| Nc1ncnc2c1nc(Cl)n2[C@@H]1O[C@H](COP(=O)(NCC(=O)OCc2ccccc2)Oc2ccccc2)[C@@H](O)[C@H]1O (mixture of isomers) [Compound B, Benzyl 2-(((((2R,3S,4R,5R)-5-(6-amino-8-chloro-9H-purin-9-yl)-3,4-dihydroxytetra-hydrofuran-2-yl)methoxy)(phenoxy)phosphoryl)amino)acetate] | 5 to 15 | 0.1 to 5 | 2.7 | 7.1 |  | particularly effective preferential targeting of LSCs |  |
| C[C@H](NP(=O)(OC[C@H]1O[C@@H](n2c(Cl)nc3c(N)ncnc32)C(O)C1O)Oc1cccc2ccccc12)C(=O)OCc1ccccc1 (stereo partly drawn) [Compound D, (2S)-Benzyl 2-(((((2R,3S,4R,5R)-5-(6-amino-8-chloro-9H-purin-9-yl)-3,4-dihydroxy-tetrahydrofuran-2-yl)methoxynaphthalene-1-yloxy)phosphoryl)amino)propanoate] |  | 0.1 to 5 | 2.5 | 3.8 | significantly (P<0.0001) more cytotoxic |  | −0.8% |
| Nc1ncnc2c1nc(Cl)n2[C@@H]1O[C@H](COP(=O)(NCC(=O)OCc2ccccc2)NCC(=O)OCc2ccccc2)C(O)C1O (some centres unmarked) [Compound AC, 8-Chloroadenosine 5′-O-bis(benzyloxy-glycin-N-yl) phosphate] |  | 0.1 to 5 |  |  | not as cytotoxic as Isomer A of Compound B | no evidence of a capacity to target cancer stem cells |  |
| Nc1ncnc2c1nc(Cl)n2[C@@H]1O[C@H](CO)[C@@H](O)[C@H]1O [8-chloroadenosine, 8-Chloroadenosine, reference compound] | 0.1 to 5 | 0.1 to 5 | 3.7 |  |  |  | +0.4% |
